Patent publication US9289433B2, “Proteasome inhibitors and uses thereof” (Yeda Research and Development Co. Ltd., priority 2009, dated 2016)
Non-standard residues stand in square brackets, D forms with d. Residues, ends and D or L forms follow the SMILES beside them. *: point of attachment. Nle = CCCC[C@H](N)C(=O)O; Cbz = O=C(OCc1ccccc1)*

Key:
[1] = test system: purified rabbit 26S proteasomes; experiment: In vitro proteasome activity assay, Suc-LLVY-AMC degradation; type: biochemical; settings: MG132 control at 5 μM
Description: For measuring proteasome activity, purified 20S or 26S proteasomes prepared from rabbit muscles were incubated at a final concentration of 16 nM, with 100 μM fluorogenic 7-amido-4-methylcoumarin (AMC) tetrapeptide substrate Suc-LLVY-AMC (Bachem) and the stated concentration of the hit compounds in the presence of 100 μl of assay buffer (50 mM Hepes, 5 mM MgCl2, 2 mM ATP and 1 mM DTT). […] The time-dependent increase of hydrolyzed AMC groups was measured in a 96-well plate equilibrated to 37° C., using a Varioscan multi-well plate reader (Thermo Fisher Scientific, Inc.) in a kinetic mode, in which the recording intervals were set to 1 minute. The excitation wavelength was 370 nm; fluorescence emission was recorded at 465 nm.
To directly test the capacity of the four compounds to inhibit activity in mammalian proteasomes, an in vitro activity assay was performed in which the hit compounds were tested for their effects on the degradation of the model fluorogenic tetrapeptide LLVY-AMC by purified rabbit 26S proteasomes.

[2] = biological target: T1, proteasome (Homo sapiens, UniProt P28072+P28074+Q99436); experiment: Image-based PIR nuclear translocation assay in H1299-PIR reporter cells; type: cell-based; settings: for PIR nuclear translocation in the NCI Diversity Set screen: 1 and 10 μM, 12 hours incubation; for PIR nuclear translocation upon treatment with known proteasome inhibitors: H1299-PIR cells, 6 hours, microscopy
T1 construct: endogenous in cells; host or cells: H1299-PIR (H1299 stably expressing the p53-YFP reporter)
From the text: To construct a YFP-tagged Proteasome Inhibitor Reporter (PIR) protein, cDNA encoding a full-length human p53 R175H mutant was amplified by PCR from a cDNA clone, and three consecutive lysine residues in the bipartite Nuclear Localization Signal (NLS) were replaced with alanines by PCR-based, site-directed mutagenesis [Higuchi R, et al., (1988) Nucleic Acids Res 16: 7351-7367; Ho S N, et al (1989) Gene 77: 51-59]. The DNA fragment was cloned into the BglII and NotI sites of pLPCX retroviral vector (Clontech) in-frame to the N-terminus of the yellow fluorescent protein (YFP), using the NotI/ClaI restriction sites. The PIR protein was expressed in an H1299 non-small cell lung carcinoma cell line, following retroviral infection, and the cells were cultured in RPMI 1640 medium containing 10% fetal bovine serum, 2 mM glutamine and 1% penicillin-streptomycin (all from Sigma-Aldrich) in a humidified atmosphere of 5% CO2 at 37° C. Fluorescent cells were isolated by flow cytometry, and single-cell cloning was used to generate a morphologically uniform cell population.
PIR-expressing H1299 cells were seeded at a density of 800 cells per well in 384-well assay plates (F-bottom, μClear, black, tissue-culture-treated) (Greiner Bio-One). Cells were cultured for 24 hours and treated with the library compounds at two concentrations (1 and 10 μM) in RPMI 1640. In each assay plate, cells in 24 wells treated with 0.2% DMSO alone were used as controls. […] Following 12 hours of incubation, cells were fixed in 3% paraformaldehyde for 20 minutes, then washed with PBS and screened for localization of the PIR protein.
WiScan™ Cell Imaging System (Idea Bio-Medical) was used for this screen [Paran Y et al., 2006, Methods Enzymol 414: 228-247]. The system is based on an IX71 microscope (Olympus), equipped with a fast laser AutoFocus device and an automated stage. Thirty-six fields were acquired from every well using a 60×/0.9 air objective, stored, and tiled into montages to detect consistent effects. Scoring of the nuclear translocation of the fluorescent PIR protein was carried out manually.
The cells were then fixed and scored for nuclear translocation of PIR.

[3] = biological target: T1, proteasome; experiment: Western blot for accumulation of polyubiquitinated proteins and β-catenin in H1299-PIR cells; type: cell-based; settings: 6 hours
Description: H1299-PIR cells were lysed with radioimmune precipitation assay buffer (1% NP-40, 1% sodium deoxycholate, 0.1% SDS, 150 mM NaCl, 50 mM Tris, pH 8.0) containing a protease inhibitor cocktail from Roche Applied Science. Protein extracts were subjected to 8% SDS-PAGE, transferred to a nitrocellulose membrane (Whatman), and probed with monoclonal anti-p53 (DO1, Santa Cruz Biotechnology), anti-ubiquitin (Covance), anti-β-catenin (Sigma) and anti-β-tubulin (Sigma) primary antibodies.
One characteristic outcome of proteasome inhibition is the accumulation of ubiquitinated proteins in the treated cells. […] Following incubation, cell extracts were analyzed by Western blot, using anti-ubiquitin and anti-β-catenin antibodies.

[4] = test system: NCI-60 panel of human tumor cell lines; settings: molar concentration, cited from earlier work; for average −log10 GI50 over the panel: all NCI-60 cell lines; for overall −log10 GI50, leukemia cells: leukemia subpanel
[5] = test system: PIR-H1299 cells; experiment: AlamarBlue cell viability assay; type: cell-based, human; settings: 48 hours, 0.1 to 100 μM
Description: The effect of each hit compound on cell viability was tested at 11 different concentrations, ranging from 0.1-100 μM. PIR cells were plated onto 384-well microplates for 24 hours, and then treated for 48 h with the library compounds. Cell viability was determined using the colorimetric AlamarBlue® (Invitrogen) viability assay, according to the manufacturer's instructions.
Proteasome inhibitors are known to be particularly cytotoxic to malignant cells via multiple mechanisms. To directly test the effects of the new proteasome inhibitors discovered in this study on cell viability, PIR-expressing H1299 cells were treated for 48 hours with each of the four compounds, at a wide range of concentrations, ranging from 0.1 to 100 μM. The cells were then subjected to an Alamar Blue viability assay, which quantifies the number of metabolically active cells. […] For all proteasome inhibitors examined in this screen, there was a high correlation between proteasomal inhibitory activity and cell viability.

[6] = biological target: proteasome β2, β1 and β5 activities (Homo sapiens, UniProt P28072+P28074+Q99436); experiment: Inhibition of tryptic-, caspase- and chymotrypsin-like proteasome activities; type: biochemical
[7] = test system: MCF10A; experiment: Cell viability, normal breast epithelial cell line; type: cell-based, human; settings: considerably higher concentration than for MDA-MB-231
[8] = test system: MDA-MB-231 cells; experiment: Cell viability, malignant breast carcinoma cells; type: cell-based, human
[9] = biological target: T1, proteasome; settings: after 20 hours of treatment, flow cytometry; cited from earlier work

Chain of proteasome β2, β1 and β5 activities (Q99436 44-277): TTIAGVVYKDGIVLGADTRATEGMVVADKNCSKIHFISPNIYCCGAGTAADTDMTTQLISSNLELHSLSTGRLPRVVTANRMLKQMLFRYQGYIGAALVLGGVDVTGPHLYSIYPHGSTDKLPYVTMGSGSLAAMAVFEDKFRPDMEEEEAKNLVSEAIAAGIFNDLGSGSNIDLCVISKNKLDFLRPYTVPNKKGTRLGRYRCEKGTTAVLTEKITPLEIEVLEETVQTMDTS
Chain of proteasome β2, β1 and β5 activities (P28072 whole entry): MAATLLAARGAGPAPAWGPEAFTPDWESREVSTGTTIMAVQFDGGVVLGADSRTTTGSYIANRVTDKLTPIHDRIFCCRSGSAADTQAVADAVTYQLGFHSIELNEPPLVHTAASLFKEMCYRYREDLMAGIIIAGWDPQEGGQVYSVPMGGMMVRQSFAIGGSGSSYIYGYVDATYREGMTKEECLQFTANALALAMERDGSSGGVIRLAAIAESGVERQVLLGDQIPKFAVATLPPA
Chain of proteasome β2, β1 and β5 activities (P28074 60-263): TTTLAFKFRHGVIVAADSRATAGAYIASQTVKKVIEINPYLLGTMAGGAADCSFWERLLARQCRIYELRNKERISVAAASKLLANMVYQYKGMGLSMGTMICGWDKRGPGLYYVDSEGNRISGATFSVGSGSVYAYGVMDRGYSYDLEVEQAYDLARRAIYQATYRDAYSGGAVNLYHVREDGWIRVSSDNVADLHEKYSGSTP
Chain of proteasome β2, β1 and β5 activities (P49720 whole entry partner): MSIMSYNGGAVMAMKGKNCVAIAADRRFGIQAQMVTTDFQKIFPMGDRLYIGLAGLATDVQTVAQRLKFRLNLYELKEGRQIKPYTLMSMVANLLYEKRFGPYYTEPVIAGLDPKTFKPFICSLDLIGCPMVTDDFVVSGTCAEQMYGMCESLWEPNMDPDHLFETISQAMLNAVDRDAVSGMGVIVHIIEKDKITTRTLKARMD

| PIR nuclear translocation in the NCI Diversity Set screen [2] | GI50 [5] [nM] | Molecule | average −log10 GI50 over the panel [4] | overall −log10 GI50, leukemia cells [4] | inhibition of LLVY-AMC degradation by purified 26S proteasome ([1]; 30 μM compound) | PIR nuclear translocation upon treatment with known proteasome inhibitors [2] | other results |
| --- | --- | --- | --- | --- | --- | --- | --- |
| positive in the assay | 96000 | NC(CCC(=O)O)C(=O)O (centres unmarked) [NSC99671] | 4.1 | 4.473 | moderate inhibitory effect |  | accumulation of polyubiquitinated proteins and β-catenin (inhibitory effect on proteasomal degradation) ([3]; 50 μM): less of an inhibitory effect |
|  |  | CC(C)C[C@H](NC(=O)[C@H](Cc1ccccc1)NC(=O)c1cnccn1)B(O)O [Bortezomib, Pyz-Phe-boroLeu, reference compound] |  |  |  | PIR translocates into the nucleus |  |
| positive in the assay | 170 | CSC(=[SH+])[N-]N=C(c1ccccn1)c1ccccn1.[Cu][Br] [NSC321206] | 7.2 | 7.73 | levels of inhibition comparable to that of MG132 |  | inhibition of Tryptic like (β2), Caspase like (β1) and Chymotrypsin like (β5) activities of the proteasome [6]: observed inhibition; accumulation of polyubiquitinated proteins and β-catenin (inhibitory effect on proteasomal degradation) ([3]; 0.15 μM): inhibitory activity comparable to that of 5 μM MG132; effect on cell viability [7]: only partially affected; GI50 ([8]; MDA-MB-231): 400 nM; effect on cell viability ([8]; MDA-MB-231, 1 μM): effectively eliminated all MDA-MB-231 cells |
| positive in the assay | 270 | CS/C([S-])=N/N=C/c1cccc(C)n1.CS/C([S-])=N/N=C/c1cccc(C)n1.[Cu+2] [NSC310551] | 6.6 | 7.028 | levels of inhibition comparable to that of MG132 |  | accumulation of polyubiquitinated proteins and β-catenin (inhibitory effect on proteasomal degradation) ([3]; 0.3 μM): inhibitory activity comparable to that of 5 μM MG132 |
|  |  | CC(C)C[C@@H](C=O)NC(=O)[C@H](CC(C)C)NC(=O)[C@H](CC(C)C)NC(=O)OCc1ccccc1 [MG132, reference compound] (Cbz-Leu-Leu-Leu-aldehyde) |  |  |  | PIR translocates into the nucleus | concentration at which MG132 is detected [9]: 2.5 µM |
|  |  | CCCC[C@@H](C=O)NC(=O)[C@H](CC(C)C)NC(=O)[C@H](CC(C)C)NC(C)=O [ALLN, reference compound] (Ac-Leu-Leu-[Nle]-aldehyde) |  |  |  | PIR translocates into the nucleus |  |

| Molecule | PIR nuclear translocation in the NCI Diversity Set screen [2] | GI50 [5] [nM] | average −log10 GI50 over the panel [4] | overall −log10 GI50, leukemia cells [4] | inhibition of LLVY-AMC degradation by purified 26S proteasome ([1]; 30 μM compound) | PIR nuclear translocation upon treatment with known proteasome inhibitors [2] | other results |
| --- | --- | --- | --- | --- | --- | --- | --- |
| 8-Quinolinol salicylate [NSC3907] | positive in the assay | 47000 | 5.3 | 6.249 |  |  | inhibition of LLVY-AMC degradation by purified 26S proteasome ([1]; 100 μM compound): only a minor effect; accumulation of polyubiquitinated proteins and β-catenin (inhibitory effect on proteasomal degradation) ([3]; 20 μM): less of an inhibitory effect |
